In ChEMBL document CHEMBL5726724, “Cystathionine-gamma-lyase (CSE) inhibitors” (2019):

molecular target: Cystathionine gamma-lyase (Homo sapiens, UniProt P32929)
Sequence (P32929 whole entry): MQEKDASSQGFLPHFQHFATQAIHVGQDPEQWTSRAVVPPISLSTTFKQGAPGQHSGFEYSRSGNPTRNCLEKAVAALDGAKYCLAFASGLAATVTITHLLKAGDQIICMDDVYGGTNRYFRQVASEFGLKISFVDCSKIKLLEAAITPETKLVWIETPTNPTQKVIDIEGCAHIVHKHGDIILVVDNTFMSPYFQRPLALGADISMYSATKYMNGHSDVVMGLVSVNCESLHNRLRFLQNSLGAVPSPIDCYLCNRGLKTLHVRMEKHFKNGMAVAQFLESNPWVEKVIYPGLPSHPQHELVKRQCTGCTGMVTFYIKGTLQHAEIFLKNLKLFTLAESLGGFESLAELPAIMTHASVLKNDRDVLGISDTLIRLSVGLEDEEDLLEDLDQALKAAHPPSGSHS

C#CC[C@H](N)c1nc(C(F)(F)F)n[nH]1 and C#CC[C@H](N)c1nc(N)n[nH]1 cannot be ordered by IC50: greater than 100 µM for the first, greater than 100 µM for the second.

N#CCC(N)C(=O)O (configuration not stated) and C#CCC(N)C(=O)O (configuration not stated) cannot be ordered by IC50: less than 25 µM for the first, less than 25 µM for the second.

C#CC[C@H](N)c1ncn[nH]1 and C#CC[C@H](N)c1noc(=O)[nH]1 cannot be ordered by IC50: less than 25 µM for the first, less than 25 µM for the second.

C#CC[C@@H](N)C(=O)O showed an IC50 greater than 100 µM.
